Common to all, as to format: cell-based, human
The subject of assay [1] is HPDE, Capan-1, AsPC-1, and BxPC-3 cells. Kind of assay: BrdU incorporation cell proliferation assay, all tested cell lines. The note with it: all tested cells, gemcitabine 20 μM, data not shown. Here is the method:
To assess cell proliferation and apoptosis, cells were plated in duplicates on a 96-well plate and incubated in 100 μl of the cell line appropriate media described above. Cells were transfected with siRNA soon after complete attachment (approx. 3 h after seeding). Cells were treated with vehicle, 20 μM gemcitabine, 20 μM T16Ainh-A01, or 10 μM free NS3728 (see below) after culture in a humidified 37 °C and 5 % CO2 incubator overnight. BrdU incorporation was measured using Cell Proliferation ELISA, BrdU (chemiluminescent) (Roche Diagnostics A/S, Denmark) following the manufacturer’s instructions. Caspases 3, 6, and 7 activation was evaluated using Homogeneous Caspases Assay (fluorimetric) (Roche Diagnostics A/S, Denmark).
Fig. 7 VRAC, but not ANO1, regulates cellular proliferation. a Summary of BrdU incorporation in HPDE, Capan-1, AsPC-1, and BxPC-3 cells after various treatments as indicated. Cells were transfected shortly after complete attachment (approx. 3 h) and BrdU incorporation was assessed 36 h after transfection. To investigate effect of inhibitors, cells were incubated for 24 h with respective inhibitor. Values shown are relative to appropriate control. Data shown represents mean ± s.e.m. of n = 4–6 individual experiments. **p ≤ 0.01 and ***p ≤ 0.001 when compared with control
A general note: Incorporation of labelled thymidine or its analogues reports DNA synthesis.

Assay [2] relates to HPDE cells. Briefly: Fura-2 measurement of free intracellular calcium, ATP stimulation. The note with it: ATP 10 μM, no inhibitor. Here is the method: (§1) HPDE and BxPC-3 cells were incubated with 2 μM Fura-2 AM (Sigma-Aldrich, Denmark) for 30 min at 37 °C. Cells were subsequently washed with Krebs solution containing (in mM) 150 NaCl, 6 KCl, 1.5 CaCl2, 1 MgCl2, 10 glucose, and 10 HEPES; pH was adjusted to 7.4 using NaOH. Coverslips were mounted on a recording chamber. In the beginning of the experiment, cells were perfused with Krebs solution at 4 ml/min until baseline was stable. […] Changes in [Ca^2+]i were measured by a TIRF iMIC microscope (TILL Photonics, Germany). Fura-2 AM loaded cells were illuminated at 340 nm for 80 ms and 380 nm for 80 ms at 1 s intervals using a TILL Polychrome monochromator. Five hundred-nanometer emission images were captured by an image-intensifying, charge-coupled device (CCD) camera (TILL Photonics, Germany) and digitized by an image processing system (TILL Photonics, Germany). The monochromator and CCD camera were controlled by LA Live Acquisition software, which was also used for image analysis. The [Ca^2+]i was presented as the Fura-2 ratio of the fluorescence signals obtained at 340/380 nm.
(§2) Fig. 8 Cl^− channel inhibitors alter ATP-induced Ca^2+ signals. Intracellular Ca^2+ measurements in FURA-2 loaded HPDE and BxPC-3 cells. a Representative single-cell traces of individual experiments. Different substances were applied as indicated. […] (n) = number of individual experiments; each containing between 5–45 single cells.***p ≤ 0.001 when compared to no inhibitor condition; ^## p ≤ 0.01 when compared with HPDE no inhibitor
(§3) Activation of CaCC requires an increase in [Ca^2+]i, which can be achieved by stimulation of receptors such as purinergic receptors. Therefore, we studied the effect of Cl^− channel inhibitors on changes in [Ca^2+]i induced by purinergic signaling. We chose HPDE cells with very low expression levels of ANO1 and the highly ANO1 overexpressing cell line BxPC-3 for investigation. Fura-2 loaded HPDE and BxPC-3 cells were stimulated with ATP (10 μM) (Fig. 8) or exposed to the inhibitor prior to stimulation. ATP stimulation caused a 0.46 ± 0.03 peak increase in the Fura-2 ratio in HPDE and 0.55 ± 0.02 in BxPC-3 cells. […] However, no effect of the inhibitor on basal Ca^2+ level was observed.

Assay [3] deals with BxPC-3 cells. The assay is described as above. To be noted: BxPC-3, ATP 10 μM, no inhibitor. Here is the method:
as §1, §2, §3

For the molecule `Nc1ccn([C@@H]2O[C@H](CO)[C@@H](O)C2(F)F)c(=O)n1` [gemcitabine], the “proliferation (BrdU incorporation)” value in assay [1] is reported as “almost complete inhibition of proliferation”.

In the case of `Nc1ncnc2c1ncn2[C@@H]1O[C@H](COP(=O)(O)OP(=O)(O)OP(=O)(O)O)[C@@H](O)[C@H]1O` [ATP], the “peak increase in the Fura-2 ratio” value in assay [2] came out at 0.46 ± 0.03; in assay [3], 0.55 ± 0.02.
